Target: T1, TRPC5-SYFP2 (TRPC5:C5 channels) (Homo sapiens, UniProt Q9UL62)
T1 construct: expressed in transfected cells
T1 sequence (Q9UL62 1-973): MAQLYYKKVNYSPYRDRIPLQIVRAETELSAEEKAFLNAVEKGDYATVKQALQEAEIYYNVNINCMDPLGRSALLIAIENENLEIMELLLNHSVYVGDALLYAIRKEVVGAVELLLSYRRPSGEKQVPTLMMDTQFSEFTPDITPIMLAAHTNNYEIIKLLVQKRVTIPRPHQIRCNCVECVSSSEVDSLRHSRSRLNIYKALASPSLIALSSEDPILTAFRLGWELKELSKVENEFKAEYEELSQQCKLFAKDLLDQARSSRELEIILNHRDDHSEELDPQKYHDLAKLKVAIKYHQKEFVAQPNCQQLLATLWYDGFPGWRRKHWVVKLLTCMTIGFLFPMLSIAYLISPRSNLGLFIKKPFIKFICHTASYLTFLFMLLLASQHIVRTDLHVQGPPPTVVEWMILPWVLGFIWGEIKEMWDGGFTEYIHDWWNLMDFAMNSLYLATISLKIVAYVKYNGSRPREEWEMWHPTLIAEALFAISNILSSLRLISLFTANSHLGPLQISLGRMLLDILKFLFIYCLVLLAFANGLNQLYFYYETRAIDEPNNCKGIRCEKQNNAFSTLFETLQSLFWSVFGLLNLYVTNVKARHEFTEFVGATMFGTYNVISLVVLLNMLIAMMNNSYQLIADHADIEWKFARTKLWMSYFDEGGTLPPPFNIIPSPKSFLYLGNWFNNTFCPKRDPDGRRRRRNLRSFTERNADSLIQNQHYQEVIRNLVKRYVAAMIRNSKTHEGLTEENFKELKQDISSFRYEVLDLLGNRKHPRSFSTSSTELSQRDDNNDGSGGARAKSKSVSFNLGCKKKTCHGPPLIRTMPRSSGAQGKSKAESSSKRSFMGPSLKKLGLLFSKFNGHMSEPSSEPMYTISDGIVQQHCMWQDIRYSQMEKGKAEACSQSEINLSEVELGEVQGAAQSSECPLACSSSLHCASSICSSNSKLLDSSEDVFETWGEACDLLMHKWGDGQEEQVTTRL
Experiment: [Ca2+]i measurement (Fura-2, FlexStation) in (Tet+) HEK T-REx cells expressing hTRPC5-SYFP2
Assay type: cell-based
From the text: To facilitate cloning of TRPC5‐SYFP2 and TRPC4‐SYFP2, a pcDNA™4/TO expression vector (ThermoFisher Scientific, Waltham, MA, USA), into which a four amino acid linker (ASAS) flanked by AgeI and SacII restriction sites had been introduced between EcoRI and XhoI restriction sites, was used (Naylor et al., 2016). Human TRPC4β was inserted between BamHI and AgeI restriction sites as described previously (Ludlow et al., 2017). Human TRPC5 (forward primer: 5′ GCTTGGTACCGCCACCATG 3′ and reverse primer: 5′ […] 3′) was inserted upstream of the linker between KpnI and AgeI restriction sites using hTRPC5/pcDNA™4/TO (Zeng et al., 2004) as a PCR template. Both constructs contained an N‐terminal Kozak sequence. SYFP2 was inserted downstream of the linker between SacII and XbaI restriction sites using pSYFP2‐C1 as a PCR template (forward primer, 5′ […] 3′; reverse primer, 5′ […] 3′). pSYFP2‐C1 was a gift from Dorus Gadella (Addgene plasmid #22878; http://n2t.net/addgene:22878; RRID:Addgene_22878; Kremers, Goedhart, van Munster, & Gadella, 2006). Plasmids were sequenced to verify identity.
HEK T‐REx™ cell line was transfected with TRPC5‐SYFP2 or TRPC4‐SYFP2 using FuGENE® HD transfection reagent. After 48 hr, cells were put under antibiotic selection using 400 μg·ml^−1 zeocin and 10 μg·ml^−1 blasticidin S (Invivogen, San Diego, California, USA). Medium changes were carried out regularly to remove dead cells. HEK T‐REx cells expressing tetracycline‐inducible human TRPC5, TRPC4–C1, and TRPC5–C1 were created as described previously (Akbulut et al., 2015; Ludlow et al., 2017; Rubaiy, Ludlow, Henrot, et al., 2017). TRPC5–C1 and TRPC4–C1 concatemers allow expression of functional channels with defined 2:2 stoichiometry that display ion permeability and current–voltage relationships distinct from those of homomeric TRPC4:C4 or TRPC5:C5 channels and consistent with those obtained upon co‐expression of TRPC1 with TRPC4 or TRPC5 (Ludlow et al., 2017; Rubaiy, Ludlow, Bon, & Beech, 2017; Rubaiy, Ludlow, Henrot, et al., 2017). Cells were cultured in DMEM‐F12 GlutaMAX (Invitrogen, Paisley, UK) containing 10% FBS (Sigma‐Aldrich, Gillingham, UK), with the addition of blasticidin (10 μg·ml^−1) and zeocin (400 μg·ml^−1) to maintain the stable incorporation of the tetracycline repressor and the channel of interest, respectively. Expression of proteins was induced by the addition of tetracycline (1 μg·ml^−1, 24 hr). Cells were maintained in a humidified incubator with 5% CO2 at 37°C. HEK 293 cells stably expressing tetracycline‐regulated human http://www.guidetopharmacology.org/GRAC/ObjectDisplayForward?objectId=494 were prepared similarly and have also been described previously (McHugh, Flemming, Xu, Perraud, & Beech, 2003). For experiments using transient co‐expression of TRPC1 and TRPC5, HEK cells at 40–60% confluency were transfected with pIRES2‐AcGFP1 and pIRES2‐DsRed‐Express2 plasmids containing human TRPC1 and TRPC5, respectively, using Lipofectamine 3000 (ThermoFisher Scientific, Yokohama, Japan). All experiments using transient expression were performed within 48 hr after transfection. A498 cells were cultured in Minimum Essential Medium containing Earle's salts (ThermoFisher Scientific, Loughborough, UK), supplemented with 10% FBS and penicillin–streptomycin (100 units per ml^−1, 100 μg·ml^−1; ThermoFisher Scientific, Loughborough, UK). CHO cells stably expressing http://www.guidetopharmacology.org/GRAC/ObjectDisplayForward?objectId=510 were maintained in Ham's Nutrient Mixture F12 (ThermoFisher Scientific, Loughborough, UK) supplemented with 10% FBS, penicillin–streptomycin, and 1 mg·ml^−1 G418 (InvivoGen, San Diego, California, USA). For experiments using hTRPC3 and hTRPC6, WT HEK 293 cells were transfected with hTRPC3 (Naylor et al., 2016) or hTRPC6 (cloned into pcDNA3) using jetPRIME® transfection reagent (VWR, Lutterworth, UK). Cells were assayed 48 hr after transfection. […]

## Cn1c(=O)n(CCCO)c(=O)c2c1nc(Oc1ccc(Cl)c(OC(F)(F)F)c1)n2Cc1ccc(Cl)cc1 [AM237]
10 nM EA
  Hill slope, suppression of EA response: -2.2
0.3 to 1 nM AM237, 30 min pre-incubation, 10 μM S1P
  Effect on S1P-mediated [Ca2+]i response: no significant effect
0.3–300 nM, Ca2+-free SBS with 0.4 mM EGTA
  Effect on [Ca2+]i in the absence of extracellular Ca2+: did not increase
3–300 nM AM237, 30 min pre-incubation, 10 μM S1P
  Effect on S1P-mediated activation of TRPC5:C5: significantly increased
30 min pre-incubation, then 10 nM EA, read-out: Relative IC50, suppression of EA-mediated [Ca2+]i response
  IC50: 13 nM
Control (DMSO pretreatment), competition experiment, read-out: EC50, activation
  EC50: 10 nM
co-application of 10 μM S1P and 0.3–300 nM AM237
  Effect on S1P response upon simultaneous addition: increases of the responses to S1P
hTRPC5-SYFP2 concentration–response curve
  Hill slope, activation: 1.4

From publication PMC6811774, “Potent, selective, and subunit‐dependent activation of TRPC5 channels by a xanthine derivative” (British Journal of Pharmacology, 2019)
